Patent US20100297025A1, “Novel compositions magnetic particles covered with gem-bisphosphonate derivatives” (Guerbet., priority 2002, published 2010)

Legend:
[1] = target: T1, folate binding protein (FBP) (Bos taurus, UniProt P02702); test: Affinity for Folate Binding Protein (FBP) by the BiaCore technique; conditions: immobilized FBP
T1 construct: purchased Sigma F-0504
Method: 1/ Assay for Affinity of Example 17 for Folate Binding Protein (FBP) by the BiaCore Technique
PGM buffer: 100 mM KH2PO4, pH 7, 10% glycerol and 4 mM β-mercaptoethanol.
The immobilization of the FBP was carried out at 1 mg/ml in the PGM buffer according to the protocols recommended by BIAcore for coupling to amines. After this, the remaining active carboxylated groups are saturated with 1M of ethanolamine pH=8. The amount of FBP attached corresponds approximately to 1.5 ng/mm^2.
Example 17 was at a concentration of 0.170 mol/L of iron, which corresponds to 1.9×10^−5 mol of particles/L (considering a crystal of 7.5 nm, i.e. 8900 atoms of iron/particle).
The attachment of the folate was followed at four different concentrations (125, 250, 500 and 1000 μM) whereas that of example 17 was carried out at […] and at 10 nM (expressed as mol of particle/L). The association and the dissociation were studied with a flow at 25 μl/min. The association and dissociation phases are 5 minutes.

[2] = target: T2, human MMP-3 (Homo sapiens, UniProt P08254); test: Inhibitory effect on human MMP-3 activity, fluorimetry; format: biochemical; conditions: MMP-3, reference product
T2 construct: host or cells: sF9 (insect) cell line
T2 sequence (P08254 100-477): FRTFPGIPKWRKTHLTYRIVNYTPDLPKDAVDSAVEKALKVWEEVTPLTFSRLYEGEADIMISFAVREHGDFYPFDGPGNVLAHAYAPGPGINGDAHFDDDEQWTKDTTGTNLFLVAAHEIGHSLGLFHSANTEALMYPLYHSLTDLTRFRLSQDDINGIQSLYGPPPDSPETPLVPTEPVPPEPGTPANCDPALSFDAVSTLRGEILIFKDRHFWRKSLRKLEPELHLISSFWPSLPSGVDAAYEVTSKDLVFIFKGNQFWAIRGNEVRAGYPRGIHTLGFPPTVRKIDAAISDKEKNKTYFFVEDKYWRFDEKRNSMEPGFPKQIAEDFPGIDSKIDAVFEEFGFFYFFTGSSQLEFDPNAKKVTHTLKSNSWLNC
Method: More precisely, the test product, or the reference product or water, was added to a buffer solution, at pH=6, containing 6 nM of MMP-3. The fluorescence of this medium was evaluated at λex=340 nm and λem=405 nm by means of a plate reader (GeminiXS, Molecular Devices), after preincubation for 30 min at 37° C. (t=0). This measurement at t=0 serves to verify any possible interference of a product with the fluorescent detection. The enzyme reaction was then initiated by adding 10 μm of the substrate NFF-2. After incubation for 90 min at 37° C., the fluorescence was again evaluated under the same conditions as previously (t=90 min). The enzyme activity was then determined by subtracting the signal measured at t=0 from the signal measured at t=90 min.
The final result is expressed as percentage inhibition of the enzyme activity.

[3] = target: αvβ5 (Homo sapiens, UniProt P06756+P18084); conditions: cited from earlier work
Sequence of αvβ5 (P06756 31-1048): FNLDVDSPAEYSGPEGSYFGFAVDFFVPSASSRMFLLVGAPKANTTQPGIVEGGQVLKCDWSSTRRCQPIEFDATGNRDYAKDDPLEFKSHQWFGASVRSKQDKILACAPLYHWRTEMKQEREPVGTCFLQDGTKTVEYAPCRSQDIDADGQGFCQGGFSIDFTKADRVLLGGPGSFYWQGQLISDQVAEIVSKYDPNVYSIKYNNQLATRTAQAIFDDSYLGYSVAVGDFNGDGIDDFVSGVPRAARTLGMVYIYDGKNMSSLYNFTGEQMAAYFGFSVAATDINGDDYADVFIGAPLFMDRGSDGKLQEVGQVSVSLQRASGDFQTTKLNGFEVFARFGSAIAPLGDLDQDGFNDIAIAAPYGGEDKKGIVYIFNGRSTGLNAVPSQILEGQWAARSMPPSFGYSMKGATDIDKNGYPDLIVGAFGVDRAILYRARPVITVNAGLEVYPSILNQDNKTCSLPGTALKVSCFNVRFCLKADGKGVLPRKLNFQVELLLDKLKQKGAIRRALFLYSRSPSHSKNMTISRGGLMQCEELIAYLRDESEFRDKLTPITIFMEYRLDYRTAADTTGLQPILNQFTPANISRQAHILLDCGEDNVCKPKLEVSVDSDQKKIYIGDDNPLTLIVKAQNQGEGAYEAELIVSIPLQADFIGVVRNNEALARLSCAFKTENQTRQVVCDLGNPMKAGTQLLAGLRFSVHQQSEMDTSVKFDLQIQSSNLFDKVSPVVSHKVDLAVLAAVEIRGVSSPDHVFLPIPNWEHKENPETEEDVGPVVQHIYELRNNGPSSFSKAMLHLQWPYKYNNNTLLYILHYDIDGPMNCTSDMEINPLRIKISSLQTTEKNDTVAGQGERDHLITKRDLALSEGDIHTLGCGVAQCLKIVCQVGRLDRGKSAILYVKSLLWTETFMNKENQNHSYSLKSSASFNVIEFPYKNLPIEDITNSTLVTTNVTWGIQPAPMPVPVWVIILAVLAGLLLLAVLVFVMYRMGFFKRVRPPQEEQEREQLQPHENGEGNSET
Sequence of αvβ5 (P18084 24-799): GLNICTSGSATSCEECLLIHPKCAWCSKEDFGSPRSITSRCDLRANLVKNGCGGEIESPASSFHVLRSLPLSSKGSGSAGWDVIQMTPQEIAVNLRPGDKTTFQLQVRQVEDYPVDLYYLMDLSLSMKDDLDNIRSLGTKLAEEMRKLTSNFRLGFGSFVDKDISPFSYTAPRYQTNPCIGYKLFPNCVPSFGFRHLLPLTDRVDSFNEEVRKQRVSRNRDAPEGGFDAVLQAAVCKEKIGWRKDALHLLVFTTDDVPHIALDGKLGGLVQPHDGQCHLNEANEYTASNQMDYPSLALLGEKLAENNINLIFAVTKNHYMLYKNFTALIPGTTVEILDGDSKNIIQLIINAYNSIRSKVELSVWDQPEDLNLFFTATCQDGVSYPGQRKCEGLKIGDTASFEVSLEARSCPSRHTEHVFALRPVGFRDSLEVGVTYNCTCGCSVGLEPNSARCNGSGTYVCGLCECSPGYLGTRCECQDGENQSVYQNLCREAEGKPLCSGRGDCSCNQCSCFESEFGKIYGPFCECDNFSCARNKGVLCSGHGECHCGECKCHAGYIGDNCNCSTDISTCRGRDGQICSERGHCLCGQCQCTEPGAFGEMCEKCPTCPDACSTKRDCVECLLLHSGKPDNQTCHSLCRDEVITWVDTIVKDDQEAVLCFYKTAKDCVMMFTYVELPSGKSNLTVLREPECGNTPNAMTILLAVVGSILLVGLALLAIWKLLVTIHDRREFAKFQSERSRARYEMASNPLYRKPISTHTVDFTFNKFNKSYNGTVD

[4] = target: α5β1 (Homo sapiens, UniProt P05556+P08648); conditions: cited from earlier work
Sequence of α5β1 (P08648 42-1049): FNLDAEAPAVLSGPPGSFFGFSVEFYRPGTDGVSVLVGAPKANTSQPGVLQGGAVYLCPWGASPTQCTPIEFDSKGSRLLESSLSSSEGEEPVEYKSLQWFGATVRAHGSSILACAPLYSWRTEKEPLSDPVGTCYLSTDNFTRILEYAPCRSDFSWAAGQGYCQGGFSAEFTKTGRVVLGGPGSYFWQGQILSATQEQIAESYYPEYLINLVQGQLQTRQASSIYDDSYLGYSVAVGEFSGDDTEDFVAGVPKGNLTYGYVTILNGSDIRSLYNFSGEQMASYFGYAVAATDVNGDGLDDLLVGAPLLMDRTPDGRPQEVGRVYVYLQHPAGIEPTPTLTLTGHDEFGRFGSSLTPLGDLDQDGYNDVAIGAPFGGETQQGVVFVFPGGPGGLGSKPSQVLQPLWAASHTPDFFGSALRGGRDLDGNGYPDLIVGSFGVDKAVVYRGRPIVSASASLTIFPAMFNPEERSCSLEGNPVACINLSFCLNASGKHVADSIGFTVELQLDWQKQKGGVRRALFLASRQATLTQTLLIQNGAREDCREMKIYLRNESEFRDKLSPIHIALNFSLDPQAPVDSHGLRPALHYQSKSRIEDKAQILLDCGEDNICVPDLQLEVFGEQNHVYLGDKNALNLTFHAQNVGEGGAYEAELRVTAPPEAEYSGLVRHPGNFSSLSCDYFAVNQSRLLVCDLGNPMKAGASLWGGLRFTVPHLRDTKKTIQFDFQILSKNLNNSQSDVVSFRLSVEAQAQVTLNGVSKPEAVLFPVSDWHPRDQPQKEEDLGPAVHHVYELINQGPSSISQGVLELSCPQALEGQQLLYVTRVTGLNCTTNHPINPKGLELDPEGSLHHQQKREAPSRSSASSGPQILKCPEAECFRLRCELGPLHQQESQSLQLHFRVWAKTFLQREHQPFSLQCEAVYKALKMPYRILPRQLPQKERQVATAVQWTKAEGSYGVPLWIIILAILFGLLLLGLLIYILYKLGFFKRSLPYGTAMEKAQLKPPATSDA
Sequence of α5β1 (P05556 21-798): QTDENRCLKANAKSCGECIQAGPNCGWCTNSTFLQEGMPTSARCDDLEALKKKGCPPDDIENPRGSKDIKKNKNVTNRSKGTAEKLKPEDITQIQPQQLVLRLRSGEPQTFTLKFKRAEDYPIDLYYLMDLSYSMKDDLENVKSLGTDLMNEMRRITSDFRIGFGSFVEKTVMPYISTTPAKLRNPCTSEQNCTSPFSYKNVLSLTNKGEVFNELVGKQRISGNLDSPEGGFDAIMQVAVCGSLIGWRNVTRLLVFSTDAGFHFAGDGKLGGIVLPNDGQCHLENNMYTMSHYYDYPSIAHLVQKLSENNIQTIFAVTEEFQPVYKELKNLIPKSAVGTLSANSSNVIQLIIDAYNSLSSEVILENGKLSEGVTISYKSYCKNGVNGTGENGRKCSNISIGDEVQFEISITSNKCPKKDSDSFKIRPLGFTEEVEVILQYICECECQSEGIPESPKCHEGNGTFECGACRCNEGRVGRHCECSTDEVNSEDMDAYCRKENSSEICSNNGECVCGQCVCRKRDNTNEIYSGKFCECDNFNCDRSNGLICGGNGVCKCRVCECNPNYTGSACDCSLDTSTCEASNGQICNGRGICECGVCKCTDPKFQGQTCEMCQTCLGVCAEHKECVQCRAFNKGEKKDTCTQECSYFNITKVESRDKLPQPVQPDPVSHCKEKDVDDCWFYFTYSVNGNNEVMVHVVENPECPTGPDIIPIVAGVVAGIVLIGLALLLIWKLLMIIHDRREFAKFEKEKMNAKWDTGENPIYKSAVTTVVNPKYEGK

T1 sequence (P02702 20-234): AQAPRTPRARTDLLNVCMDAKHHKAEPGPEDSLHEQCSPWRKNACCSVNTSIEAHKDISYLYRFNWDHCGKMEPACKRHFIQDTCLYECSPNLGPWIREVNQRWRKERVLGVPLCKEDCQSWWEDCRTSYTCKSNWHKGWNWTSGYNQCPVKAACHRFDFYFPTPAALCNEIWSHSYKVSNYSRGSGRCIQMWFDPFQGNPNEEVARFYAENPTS

## Nc1nc2ncc(CNc3ccc(C(=O)N[C@@H](CCC(=O)O)C(=O)O)cc3)nc2c(=O)[nH]1 [Folic acid]
[1]; flow 25 μl/min, read-out: Association rate ka
  kon: 1000 M⁻¹ s⁻¹
[1]; flow 25 μl/min, read-out: Dissociation rate kd
  koff: 0.0016 s⁻¹
[1]; read-out: Affinity constant KD
  Kd: 1600 nM

## CNC(=O)[C@H](Cc1c[nH]c2ccccc12)NC(=O)[C@@H](CC(=O)NO)CC(C)C [Ilomastat]
[2]
  IC50: 130 nM

## cyclo(ARGD-Mamb) [XJ735]
[3]
  blocking of other integrins: does not block
[4]
  blocking of other integrins: does not block
